Data taken from patent US9029414B2, “Triterpenoid compounds and methods of use thereof” (Biotechnology Research Corporation, priority 2008, dated 2015).

Key:
[1] = test system: cortical neurons; assay: Cortical neuron survival assay against amyloid beta peptide excitotoxicity (MTT); type: cell-based, Sprague-Dawley rats; set-up: key: black bars represent compounds with strong protective effect; striped bars represent compounds with moderate effect; light-dotted bars represent compounds without or with effect less than 25%; settings: compounds 2 hours prior to co-treatment with Aβ25-35 (10 μM) 24 hours
Experimental: FIG. 14. Derivatives of DA001 protect the cortical neurons from Aβ25-35 excitotoxicity. Cortical neurons were incubated with compounds (at various [μM]) derived from of DA001 2 hours prior to co-treatment with Aβ25-35 (10 μM) for 24 hours. 3-(4,5-Dimethylthiazol-2-yl)-2,5-diphenyltetrazolium bromide (MTT) assay was performed 24 hours after Aβ25-35 treatment. Data are expressed as mean fold change±s.e.m. compared to solvent control (DMSO). Dark-dotted bar represents data without addition of Aβ25-35, open bar represents solvent control, black bars represent compounds with strong protective effect while striped bars represent compounds with moderate effect, light-dotted bars represent compounds without or with effect less than 25%. *=P<0.05, **=P<0.005.
Cortical neurons were prepared from embryonic day 18 Sprague-Dawley rats. After the cortices had been removed from the brain, isolated cells were plated onto Poly d-Lysine (PDL) (P0899, Sigma)-coated 48 well plates (150687, NUNC) at a density of 1×10^5 cell per well using Neurobasal Medium (NB) (21103-049, Gibco) with B27 supplement (17504-044, Gibco), penicillin/streptomycin (15140, Gibco) and 1 mM L-glutamine (25030, Gibco). The cell culture was incubated at 37° C. in a humidified atmosphere of 5% CO2 in air. Medium was changed to growth medium (Neurobasal Medium with penicillin/streptomycin and B27 supplement) after 3 hours. Half medium was changed with growth medium every 2-3 days to maintain the cells until day 7 in vitro (7 DIV). Serial dilutions of samples were prepared in growth medium and DMSO was used as vehicle control. For pre-treating part, half of the medium was removed from wells, and equal amount of diluted samples were replaced. Cells were then incubated for 2 hours at 37° C. in a humidified atmosphere of 5% CO2 in air. Cortical neurons were then incubated with DA001 derived compounds (at various concentrations in [μM]) together with Aβ25-35 (10 μM, Sigma) for 24 hours. Quantification of living cells are measured by MTT (3-(4,5-Dimethylthiazol-2-yl)-2,5-diphenyltetrazolium bromide, USB) assay performed 24 hours after Aβ25-35 treatment. Yellow MTT is reduced to purple formazan in the mitochondria of living cells. A solubilization solution [10% SDS (sodium dodecyl sulfate)/0.01 M hydrochloric acid] is added to dissolve the insoluble purple formazan product into a colored solution which was then quantified at wavelength 570 nm using a spectrophotometer (DYNEX Technologies).
A total of 90 derivatives of DA001 were synthesized, and their effect on cortical neurons survival against amyloid beta peptide (Aβ25-35) excitotoxicity was examined. […] Compounds with strong protective effect are DA002, DA005, DA007, DA016, DA018, DA019, DA042, DA044, DA060 and DA072.

[2] = test system: LPS-induced TNF-α in serum; assay: Murine model of lipopolysaccharide-induced cytokine production; type: in vivo, Swiss-Webster mice; settings: 10 mg/kg orally, positive control
Experimental: This is a contract research performed by Washington Biotechnology Inc., Columbia, Md., protocol 1077. Swiss-Webster mice (female, Harlan Sprague-Dawley, 5-6 weeks) were weighed and dosed orally with 10 ml/kg water, prednisolone at 10 mg/kg, or DA021 at 30 mg/kg or 100 mg/kg. Thirty minutes after oral dosing, lipopolysaccharides (LPS) at 2 mL/kg was injected. Two hours after LPS injection, the mice were anesthetized and exsanguinated into serum separator micro-container tubes. The blood was processed to serum. The serum samples were assayed for tumor necrosis factor-α (TNFα) concentration by ELISA (Pierce) according to the manufacturer's protocol.
Evaluation of the efficacy and potency of orally administered DA021 to inhibit the lipopolysaccharide (LPS)-induced release of tumor necrosis factor-α (TNF-α) in mice was carried out. LPS is a widely used endotoxin, isolated from the bacteria, E. coli in inducing acute inflammation in an organism. Prednisolone is a synthetic corticosteroid drug that is commonly used in inflammatory reactions. It is a broad range immunosuppressant. Based on FIG. 29, there was a marked increase in the amount of TNF-α in serum upon LPS treatment in mice.
Two hours after LPS injection, the serum was collected from the mice. The serum samples were assayed for tumor necrosis factor-α (TNFα) concentration by ELISA (Pierce) according to the manufacturer's protocol. N=10, significance was calculated versus LPS+vehicle using the Student's T-test, *=p≦0.05, #=p≦1×10^−4.

[3] = test system: C57BL/6 mice immunized with MOG; assay: Experimental autoimmune encephalomyelitis (EAE) behavioral scores; type: in vivo; settings: 100 mg/kg oral daily from day of immunization
Experimental: FIG. 15 illustrates that DA001 improves the behavioral scores of mice with experimental autoimmune encephalomyelitis. C57BL/6 mice were immunized subcutaneously at both sides of their hind limbs with myelin oligodendrocyte glycoprotein (MOG)/Complete Freund's Adjuvant (CFA) kit (Hooke Laboratories) and performed as indicated in the manufacturer's instruction. Albumin/CFA kit (Hooke Laboratories) were used as an immunization control. Oral administration of DA001 at 100 mg/kg was given daily starting from the day of immunization. The vehicle (water) was given to mice injected with MOG or albumin daily via oral administration. Animals were weighed and monitored daily and behavioral impairment was quantified based on the clinical scale. The graph presented here is a composite of four separate EAE trials. **=p≦0.01.
FIG. 16 illustrates that DA002 improves the behavioral scores of mice with experimental autoimmune encephalomyelitis. C57BL/6 mice were immunized subcutaneously at both sides of their hind limbs with myelin oligodendrocyte glycoprotein (MOG)/Complete Freund's Adjuvant (CFA) kit (Hooke Laboratories) and performed as indicated in the manufacturer's instruction. […] Animals were weighed and monitored daily and behavioral impairment was quantified based on the clinical scale. *=p≦0.05.
C57BL/6 mice were immunized subcutaneously at both sides of their hind limbs with myelin oligodendrocyte glycoprotein (MOG)/Complete Freund's Adjuvant (CFA) kit (Hooke Laboratories) and performed as in manufacturer's instruction. […] Animals were weighed and monitored daily and behavioral impairment was quantified based on the clinical scale. […]
On day 0, six-week old male C57BL/6 mice (Hong Kong University of Science and Technology, Animal Care facility) were immunized with 100 μg of myelin oligodendrocyte glycoprotein peptide (MOG35-55)/complete Freund's Adjuvant (CFA) emulsion kit (Hooke Laboratories) was injected subcutaneously at both sides of the tail base. […] The animals were also weighed and the neurological impairment was quantified daily based on the previously published criteria. […]

[4] = test system: BALB/c mice; assay: Murine model of oxazolone-induced ear edema; type: in vivo; settings: topical, positive control
Experimental: This is a contract research performed by Washington Biotechnology Inc., Columbia, Md., protocol 1041. On day 0, 42 BALB/c mice (female, Harlan Sprague-Dawley, 5-6 weeks) were shaved on the ventral surface of the right ear. 100 μl of the 5% oxazolone solution (Sigma) was then applied to the saved ear. The treated mice were then returned to the cage and kept for additional 6 days. On day 7, the mice were weighed and dosed orally with 10 ml/kg water or DA021 at either 30 mg/kg or 100 mg/kg or topically applied on both sides of both ears with 25 μl betamethasone. Thirty minutes after oral dosing, 5 μl of 3% oxazolone was applied to both sides of the right ear and 5 μl of acetone was applied to both sides of the contralateral ear. Twenty-four hours after 3% oxazolone/acetone application, the mice were euthanized, the ears removed and weighed.
To evaluate the efficacy and potency of DA021 in acute inflammation, an oxazolone-induced ear edema model was carried out in mice. Oxazolone-induced ear edema model is a commonly used skin inflammatory animal model. Oxazolone (OA) is an allergen that induces immunological responses that lead to surface edema. […] Betamethasone (BMS) which was used as a positive control, is a corticosteroid that is used as an anti-itching cream and other anti-inflammatory remedies.
Mice were then treated with betamethasone (BMS, mg, topical) or DA021 (mg/kg, p.o.) and the ears were removed and weighed. N=10 per group, significance (p-value) was calculated versus OA+vehicle using the Student's T-test, *=P≦1×10^−7, #=P≦1×10^−12.

| Compound | protective effect against Aβ25-35 excitotoxicity [1] | also measured |
| --- | --- | --- |
| C=C(C)[C@@H]1CC[C@]2(C(=O)O)CC[C@]3(C)C(CCC4[C@@]5(C)CC[C@H](O[C@@H]6OC[C@H](OC(C)=O)[C@H](OC(C)=O)[C@H]6O[C@@H]6O[C@@H](C)[C@H](OC(C)=O)[C@@H](OC(C)=O)[C@H]6OC(C)=O)[C@@](C)(COC(C)=O)[C@@H]5CC[C@]43C)C12 (stereo partly shown) [DA044] | strong |  |
| C=C(CNCc1ccccc1)[C@@H]1CC[C@]2(C(=O)O)CC[C@]3(C)C(CC[C@@H]4[C@@]5(C)CC[C@H](OC(C)=O)[C@@](C)(COC(C)=O)[C@@H]5CC[C@]43C)[C@@H]12 (stereo partly shown) [DA072, 30-N-Benzylamino-3,23-diacetoxy-betulinic acid] | strong |  |
| C=C(COC(C)=O)[C@@H]1CC[C@]2(C(=O)O)CC[C@]3(C)C(CC[C@@H]4[C@@]5(C)CC[C@H](OC(C)=O)[C@@](C)(COC(C)=O)[C@@H]5CC[C@]43C)[C@@H]12 (stereo partly shown) [DA060, 3,23,30-Triacetoxy-betulinic acid] | strong |  |
| C=C(C)[C@@H]1CC[C@]2(C(=O)O)CC[C@]3(C)C(CCC4[C@@]5(C)CCC(=O)[C@@](C)(CO)[C@@H]5CC[C@]43C)C12 (stereo partly shown) [DA018] | strong |  |
| C[C@]12C=CC(=O)C=C1CC[C@@H]1[C@@H]2[C@@H](O)C[C@@]2(C)[C@H]1CC[C@]2(O)C(=O)CO [Prednisolone, reference compound] |  | LPS-induced TNF-α level [2]: dramatically decreased |
| C=C(C)[C@@H]1CC[C@]2(C(=O)O)CC[C@]3(C)C(CCC4[C@@]5(C)CC/C(=N\O)[C@@](C)(CO)[C@@H]5CC[C@]43C)C12 (stereo partly shown) [DA019] | strong |  |
| C=C(C)[C@@H]1CC[C@]2(C(=O)O)CC[C@]3(C)C(CCC4[C@@]5(C)CCC(=O)[C@@](C)(COC(C)=O)[C@@H]5CC[C@]43C)C12 (stereo partly shown) [DA016] | strong |  |
| C=C(C)[C@@H]1CC[C@]2(C(=O)NCc3ccccc3)CC[C@]3(C)C(CCC4[C@@]5(C)CC[C@H](O)[C@@](C)(CO)[C@@H]5CC[C@]43C)C12 (stereo partly shown) [DA042] | strong |  |
| C=C(C)[C@@H]1CC[C@]2(C(=O)O)CC[C@]3(C)C(CCC4[C@@]5(C)CC[C@H](O)[C@@](C)(CO)[C@@H]5CC[C@]43C)C12 (stereo partly shown) [DA002] | strong | EAE scores vs vehicle-treated EAE mice [3]: significant decrease in the EAE scores |
| C=C(C)[C@@H]1CC[C@]2(C(=O)O)CC[C@]3(C)C(CCC4[C@@]5(C)CC[C@H](OC(C)=O)[C@@](C)(CO)[C@@H]5CC[C@]43C)C12 (stereo partly shown) [DA007] | strong |  |
| C[C@H]1C[C@H]2[C@@H]3CCC4=CC(=O)C=C[C@]4(C)[C@@]3(F)[C@@H](O)C[C@]2(C)[C@@]1(O)C(=O)CO [Betamethasone, reference compound] |  | Change in Ear Weight (mg), Average [4]: 17.4 mg; Change in Ear Weight, % Inhibition [4]: 75.4% |
